The target in the first assay is T1, GST-FAK (N-terminal GST fusion with truncated human FAK (376-1052 (end) amino acids)) (Homo sapiens, UniProt Q05397).
T1 construct: truncated human FAK (376-1052 (end) amino acids)
T1 sequence (Q05397 376-1052): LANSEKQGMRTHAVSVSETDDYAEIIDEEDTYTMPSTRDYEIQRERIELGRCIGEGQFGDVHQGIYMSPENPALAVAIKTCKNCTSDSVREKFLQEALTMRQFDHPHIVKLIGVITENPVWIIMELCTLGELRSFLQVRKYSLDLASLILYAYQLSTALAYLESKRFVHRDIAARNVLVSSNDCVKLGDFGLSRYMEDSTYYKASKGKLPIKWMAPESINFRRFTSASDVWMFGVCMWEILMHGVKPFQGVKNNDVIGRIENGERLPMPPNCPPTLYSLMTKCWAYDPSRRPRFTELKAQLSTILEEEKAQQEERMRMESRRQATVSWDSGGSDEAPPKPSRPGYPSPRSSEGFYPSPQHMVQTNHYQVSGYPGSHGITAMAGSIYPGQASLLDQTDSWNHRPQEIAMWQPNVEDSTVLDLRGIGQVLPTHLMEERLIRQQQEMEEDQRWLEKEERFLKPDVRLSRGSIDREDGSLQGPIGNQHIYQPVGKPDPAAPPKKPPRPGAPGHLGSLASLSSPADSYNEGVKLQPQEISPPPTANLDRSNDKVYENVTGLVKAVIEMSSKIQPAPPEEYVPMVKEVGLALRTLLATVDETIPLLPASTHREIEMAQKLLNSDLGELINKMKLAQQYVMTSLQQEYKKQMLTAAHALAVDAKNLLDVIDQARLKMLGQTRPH
Put plainly: Biochemical enzyme assay for FAK activity (Caliper LC3000 mobility shift). The note with it: Table 1; 100 uM ATP; read-out: FAK IC50. The protocol: 1. Biochemical Enzyme Assays for FAK Activity
The FAK assays described here are performed on two Caliper Life Sciences systems, the LC3000 and the EZ Reader II. These provide data on enzyme activity via measurement of the relative amounts of phosphorylated or unphosphorylated fluorescently labelled substrate peptide at the end of an enzymatic reaction. These different states of peptide are resolved by applying a potential difference across the sample. The presence of the charged phosphate group on the product (as opposed to the substrate) causes different peptide mobility between the two peptides. This is visualized by excitation of the fluorescent label on the substrate and product peptides and represented as peaks within the analysis software.
In order to measure inhibitor activity of FAK, inhibitors in the Caliper Life Sciences LC3000, a TTP Mosquito liquid handling instrument is used to place 0.25 ul of the appropriate concentration of inhibitor in 100% DMSO (for a dose response curve calculation) into each well of a 384-well plate. To this reaction components are added to a final volume of 25 ul: • 0.067 ng/ul GST-FAK (N-terminal GST fusion with truncated human FAK (376-1052 (end) amino acids)) • 100 uM ATP • 1 mM DTT • 1 mM MgCl2 • 1 uM substrate peptide (sequence FITC-KGWMEDYDYVHLQGKK-(CONH2)SEQ ID NO: 1)) • 1 mM FERM peptide (sequence NH2-GATQSFIIR-COOH (SEQ ID NO: 2)) • 100 mM HEPES pH 7.5 • 0.015% Brij-35
The reaction is incubated for 90 min at 25 C, and then stopped by the addition of 70 ul of Stop buffer (100 mM HEPES pH 7.5, 0.015% Brij-35, 10 mM EDTA).
The plate is read on a Caliper LC 3000 in an Off-Chip mobility shift assay format, using the following parameters for a 12-sipper chip: screening pressure—1.9 psi, upstream voltage—3000, downstream voltage—700. These conditions cause unphosphorylated substrate and phosphorylated product peptide to resolve as separate peaks allowing direct measurement of percentage of conversion of substrate to product. The percent conversion can be plotted against concentration of inhibitor to produce a sigmoid dose response curve, from which an IC50 can be calculated using XLFit for Microsoft Excel.
As to `Fc1ccc(Oc2ccc(CNc3ccnc(-c4cncc(F)c4)n3)cc2)cc1` [Compound 7, [4-(4-Fluoro-phenoxy)-benzyl]-[2-(5-fluoro-pyridin-3-yl)-pyrimidin-4-yl]-amine], the IC50 was over 10 µM. As to `FC(F)(F)c1cncc(-c2nccc(NCc3ccc4c(c3)OCCO4)n2)c1` [Compound 30, (2,3-Dihydro-benzo[1,4]dioxin-6-ylmethyl)-[2-(5-trifluoromethyl-pyridin-3-yl)-pyrimidin-4-yl]-amine], the IC50 is over 10 µM. For the molecule `Fc1cc(Cl)ccc1CNc1ccnc(-c2cncc(C(F)(F)F)c2)n1` [Compound 35, (4-Chloro-2-fluoro-benzyl)-[2-(5-trifluoromethyl-pyridin-3-yl)-pyrimidin-4-yl]-amine], the IC50 is under 0.1 µM.

Regarding `O=C(c1cncc(-c2nccc(NCc3ccc(N4CCOCC4)cc3)n2)c1)N1CCOCC1` [Compound 14, Morpholin-4-yl-{5-[4-(4-morpholin-4-yl-benzylamino)-pyrimidin-2-yl]-pyridin-3-yl}-methanone], the IC50 is over 10 µM. Same read-out and setting: to `FC(F)(F)c1cncc(-c2nccc(NCc3cccc(-n4cccn4)c3)n2)c1` [Compound 29, (3-Pyrazol-1-yl-benzyl)-[2-(5-trifluoromethyl-pyridin-3-yl)-pyrimidin-4-yl]-amine] belongs 1 to 10 µM.

Turning to `FC(F)(F)c1cncc(-c2nccc(NCc3cccc(Oc4cnccn4)c3)n2)c1` [Compound 27, [3-(Pyrazin-2-yloxy)-benzyl]-[2-(5-trifluoromethyl-pyridin-3-yl)-pyrimidin-4-yl]-amine], the IC50 was over 10 µM. Consider `Fc1ccc(Oc2ccc(CNc3ccnc(-c4cncc(C(F)(F)F)c4)n3)cc2)cc1` [Compound 25, [4-(4-Fluoro-phenoxy)-benzyl]-[2-(5-trifluoromethyl-pyridin-3-yl)-pyrimidin-4-yl]-amine], for which the IC50 was over 10 µM. In the case of `O=C(c1cncc(-c2nccc(NCc3ccc(Cl)cc3F)n2)c1)N1CCOCC1` [Compound 22, {5-[4-(4-Chloro-2-fluoro-benzylamino)-pyrimidin-2-yl]-pyridin-3-yl}-morpholin-4-yl-methanone], the IC50 was over 10 µM.

For the molecule `COc1cncc(-c2nccc(NCc3cccc4c3OC(C)(C)C4)n2)c1` [Compound 17, (2,2-Dimethyl-2,3-dihydro-benzofuran-7-ylmethyl)-[2-(5-methoxy-pyridin-3-yl)-pyrimidin-4-yl]-amine], the IC50 is over 10 µM. In the case of `Fc1ccc(Oc2ccc(CNc3ccnc(-c4cncc(Cl)c4)n3)cc2)cc1` [Compound 31, [2-(5-Chloro-pyridin-3-yl)-pyrimidin-4-yl]-[4-(4-fluoro-phenoxy)-benzyl]-amine], the IC50 was over 10 µM. On to `COc1cncc(-c2nccc(NCc3ccc4c(c3)OCCO4)n2)c1` [Compound 6, (2,3-Dihydro-benzo[1,4]dioxin-6-ylmethyl)-[2-(5-methoxy-pyridin-3-yl)-pyrimidin-4-yl]-amine], for which the IC50 was over 10 µM.

The assay is the same for the next values; noted with them: Table 2; 100 uM ATP; read-out: FAK IC50.
Consider `NC(=O)CCNc1cc(NCc2ccc(F)cc2F)nc(-c2cncc(C(F)(F)F)c2)n1` [Compound 61, 3-[6-(2,4-Difluoro-benzylamino)-2-(5-trifluoromethyl-pyridin-3-yl)-pyrimidin-4-ylamino]-propionamide], for which the IC50 fell in the range of 0.1 to 1 µM.

The assay is the same for the next values; noted with them: Table 3; 100 uM ATP; read-out: FAK IC50.
Take `FC(F)(F)c1cncc(-c2nccc(NCc3cccc4nsnc34)n2)c1` [Compound 133, N-(2,1,3-Benzothiadiazol-4-ylmethyl)-2-[5-(trifluoromethyl)pyridin-3-yl]pyrimidin-4-amine]: the IC50 was under 0.1 µM. The same measure, in the same setting: in the case of `Nc1ncccc1-c1nccc(NCc2ccccc2F)n1` [Compound 78, 2-(2-Aminopyridin-3-yl)-N-(2-fluorobenzyl)pyrimidin-4-amine] it was 0.1 to 1 µM; in that of `Cc1ccccc1CNc1ccnc(-c2cccnc2N)n1` [Compound 82, 2-(2-Aminopyridin-3-yl)-N-(2-methylbenzyl)pyrimidin-4-amine], 1 to 10 µM. Still for that read-out and setting: to `Nc1ncccc1-c1nccc(NC2CCOc3ccccc32)n1` (stereo not drawn) [Compound 116, 2-(2-Aminopyridin-3-yl)-N-(3,4-dihydro-2H-chromen-4-yl)pyrimidin-4-amine] belongs over 10 µM; to `C[C@H](Nc1ccnc(-c2cccnc2N)n1)c1ccccc1C(F)(F)F` [Compound 138, 2-(2-Aminopyridin-3-yl)-N-{(1S)-1-[2-(trifluoromethyl)phenyl]ethyl}pyrimidin-4-amine], 1 to 10 µM; to `COc1ccc(CNc2ccnc(-c3cccnc3N)n2)cc1` [Compound 97, 2-(2-Aminopyridin-3-yl)-N-(4-methoxybenzyl)pyrimidin-4-amine], over 10 µM.

The same assay, now with this note: Table 4; 100 uM ATP; read-out: IC50 FAK.
Take `CS(=O)(=O)n1cc(Nc2ccnc(-c3cncc(C(F)(F)F)c3)n2)cn1` [Compound 182, N-(1-methylsulfonylpyrazol-4-yl)-2-[5-(trifluoromethyl)-3-pyridyl]pyrimidin-4-amine]: the IC50 is 0.1 to 1 µM.

Still in this assay, the particulars now being: Table 5; 100 uM ATP; read-out: FAK IC50.
In the case of `COc1cncc(-c2nccc(NCc3cc(C)nn3C)n2)c1` [Compound 222, (2,5-Dimethyl-2H-pyrazol-3-ylmethyl)-[2-(5-methoxy-pyridin-3-yl)-pyrimidin-4-yl]-amine], the IC50 is over 10 µM. Consider `NC(=O)CNC(=O)c1cc(NCc2ncccc2F)nc(-c2cncc(C(F)(F)F)c2)n1` [Compound 190, 6-[(3-Fluoro-pyridin-2-ylmethyl)-amino]-2-(5-trifluoromethyl-pyridin-3-yl)-pyrimidine-4-carboxylic acid carbamoylmethyl-amide], for which the IC50 lay in the range of 0.1 to 1 µM.

As for `O=C1c2ccccc2CN1c1ccnc(-c2cncc(C(F)(F)F)c2)n1` [Compound 235, 2-[2-(5-Trifluoromethyl-pyridin-3-yl)-pyrimidin-4-yl]-2,3-dihydro-isoindol-1-one], the IC50 was over 10 µM.

`Fc1ccc(CNc2ccnc(-c3cccc(C(F)(F)F)c3)n2)c(F)c1` [Compound 240, (2,4-Difluoro-benzyl)-[2-(3-trifluoromethyl-phenyl)-pyrimidin-4-yl]-amine]: the IC50 is over 10 µM.

On to `Fc1ccc(CNc2nc(-c3cncc(C(F)(F)F)c3)nc3[nH]cnc23)c(F)c1` [Compound 237, (2,4-Difluoro-benzyl)-[2-(5-trifluoromethyl-pyridin-3-yl)-9H-purin-6-yl]-amine], for which the IC50 was 0.1 to 1 µM.

Turning to `Fc1ccc(CNc2cccc(-c3cncc(C(F)(F)F)c3)n2)c(F)c1` [Compound 231, (2,4-Difluoro-benzyl)-(5′-trifluoromethyl-[2,3′]bipyridinyl-6-yl)-amine], the IC50 is under 0.1 µM. For `CN(C)C(=O)c1ccccc1Nc1ccnc(-c2cncc(C(F)(F)F)c2)n1` [Compound 255, N,N-Dimethyl-2-[2-(5-trifluoromethyl-pyridin-3-yl)-pyrimidin-4-ylamino]-benzamide], the IC50 is over 10 µM. The same measure, in the same setting: in the case of `Cn1cc(-c2cc(NCc3ccc(F)cc3F)nc(-c3cnn(C)c3)n2)cn1` [Compound 258, [2,6-Bis-(1-methyl-1H-pyrazol-4-yl)-pyrimidin-4-yl]-(2,4-difluoro-benzyl)-amine] it was 1 to 10 µM; in that of `COc1cncc(-c2nccc(NCCN3CCCC3=O)n2)c1` [Compound 199, 1-{2-[2-(5-Methoxy-pyridin-3-yl)-pyrimidin-4-ylamino]-ethyl}-pyrrolidin-2-one], over 10 µM. With `COc1ccccc1CCNc1ccnc(-c2cncc(C(F)(F)F)c2)n1` [Compound 201, [2-(2-Methoxy-phenyl)-ethyl]-[2-(5-trifluoromethyl-pyridin-3-yl)-pyrimidin-4-yl]-amine], the IC50 lay within 1 to 10 µM. Regarding `COc1cncc(-c2nccc(NCc3ccccn3)n2)c1` [Compound 228, [2-(5-Methoxy-pyridin-3-yl)-pyrimidin-4-yl]-pyridin-2-ylmethyl-amine], the IC50 was 0.1 to 1 µM. On to `Fc1ccccc1CNc1ccnc(-c2cccnc2F)n1` [Compound 205, (2-Fluoro-benzyl)-[2-(2-fluoro-pyridin-3-yl)-pyrimidin-4-yl]-amine], for which the IC50 was in the range of 1 to 10 µM.

`FC(F)(F)c1cccc(CCNc2ccnc(-c3cncc(C(F)(F)F)c3)n2)c1` [Compound 191, [2-(3-Trifluoromethyl-phenyl)-ethyl]-[2-(5-trifluoromethyl-pyridin-3-yl)-pyrimidin-4-yl]-amine]: the 50% inhibitory concentration (IC50) was in the range of 1 to 10 µM. On to `CN(C)C(=O)c1cc(NCc2ccc(F)cc2F)nc(-c2cncc(C(F)(F)F)c2)n1` [Compound 264, 6-(2,4-Difluoro-benzylamino)-2-(5-trifluoromethyl-pyridin-3-yl)-pyrimidine-4-carboxylic acid dimethylamide], for which the IC50 was under 0.1 µM.

One may read the IC50 as the concentration that inhibits the measured activity by half.

(Values after patent US9199962B2, “Substituted azaheterocycles for the treatment of cancer” (Merck Patent GmbH, priority 2011, dated 2015).)
